Experiments:
[1] = target: SARS-CoV-2 3CLpro (Severe acute respiratory syndrome coronavirus 2, UniProt P0DTD1); experiment: FRET based protease assay, SARS-CoV-2 3CL; format: biochemical, SARS-CoV-2 (strain BetaCoV/Wuhan/WIV04/2019)
[2] = target: MERS-CoV 3CLpro (Middle East respiratory syndrome-related coronavirus, UniProt K9N638); experiment: biochemical; conditions: MERS IC50, 75 nM MERS-CoV 3CLpro, 6 μM peptide 1 substrate, 25° C., 1.5 hrs, pH 7.5
Chain of MERS-CoV 3CLpro (K9N638 3248-3553 limits assumed): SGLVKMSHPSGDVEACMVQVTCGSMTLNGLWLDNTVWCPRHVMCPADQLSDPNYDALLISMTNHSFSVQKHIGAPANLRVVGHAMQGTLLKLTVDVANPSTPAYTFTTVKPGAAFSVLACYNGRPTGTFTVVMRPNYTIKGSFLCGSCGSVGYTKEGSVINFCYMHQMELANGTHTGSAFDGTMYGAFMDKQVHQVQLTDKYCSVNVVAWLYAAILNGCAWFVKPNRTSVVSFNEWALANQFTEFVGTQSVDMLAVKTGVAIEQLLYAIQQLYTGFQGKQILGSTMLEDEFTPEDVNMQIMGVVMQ

Compound	IC50 [1] [nM]	IC50 [2] [nM]
CC1(C)[C@@H]2[C@H]3C(=O)N[C@H](C#N)C[C@@H]4C(=O)NC[C@@H]4CCCC[C@H](Nc4ccnc(C(F)(F)F)n4)C(=O)N3C[C@@H]21 [Example 164]	< 100	100 to 1000
CC1(C)[C@@H]2[C@H]3C(=O)N[C@H](C#N)C[C@@H]4C(=O)NC[C@@H]4CCCC[C@H](NC(=O)c4ccc(F)c(C(F)(F)F)c4)C(=O)N3C[C@@H]21 [Example 116]	< 100	< 100
CC(C)C[C@@H]1NC(=O)[C@@H](NC(=O)OC(C)(C)C)CCC[C@H]2CNC(=O)[C@H]2C[C@@H](C=O)NC1=O [Example 15]	100 to 1000	100 to 1000
N#C[C@@H]1C[C@@H]2C(=O)NC[C@@H]2CCCC[C@H](NC(=O)C2(C(F)(F)F)CC2)C(=O)N2C[C@@H]3CCC[C@@H]3[C@H]2C(=O)N1 [Example 150]	< 100	< 100
CC(C)C[C@@H]1NC(=O)CCCCCC[C@H]2CNCC(=O)[C@@H]2C[C@@H](C=O)NC1=O [Example 52]	100 to 1000	1000 to 20000
CC(C)C[C@@H]1NC(=O)CCCCCC[C@H]2CNC(=O)[C@H]2C[C@@H](C=O)NC1=O [Example 45]	100 to 1000	1000 to 20000
CN1C(=O)[C@@H](NC(=O)C(C)(C)C)CCCC[C@H]2CNC(=O)[C@H]2C[C@@H](C#N)NC(=O)[C@@H]1CC(C)(C)C [Example 78]	< 100	1000 to 20000
CC1(C)[C@@H]2[C@H]3C(=O)N[C@H](C#N)C[C@@H]4C(=O)NC[C@@H]4CCCC[C@H](NC(=O)c4ccc(Cl)c(Cl)c4)C(=O)N3C[C@@H]21 [Example 120]	< 100	< 100
CC(C)C[C@@H]1NC(=O)[C@@H](Cc2ccccc2)CCCC[C@H]2CNC(=O)[C@H]2C[C@@H](C#N)NC1=O [Example 39]	100 to 1000	1000 to 20000
CC(C)(C)OC(=O)N[C@H]1CCCC[C@H]2CNC(=O)[C@H]2C[C@@H](C#N)NC(=O)[C@@H]2CC3(CC3)CN2C1=O [Example 105]	100 to 1000	100 to 1000
CC(C)C[C@@H]1NC(=O)[C@@H](NC(=O)C(C)(C)C)CC/C=C/[C@H]2CNC(=O)[C@H]2C[C@@H](C#N)NC1=O [Example 58]	< 100	100 to 1000
CC1(C)[C@@H]2[C@H]3C(=O)N[C@H](C#N)C[C@@H]4C(=O)NC[C@@H]4CCCC[C@H](NC(=O)C4CCC4)C(=O)N3C[C@@H]21 [Example 76]	< 100	100 to 1000
CC1(C)[C@@H]2[C@H]3C(=O)N[C@H](C#N)C[C@@H]4C(=O)NC[C@@H]4CCCC[C@H](NS(=O)(=O)C4CCC4)C(=O)N3C[C@@H]21 [Example 160]	< 100	< 100
CC1(C)[C@@H]2[C@H]3C(=O)N[C@H](C#N)C[C@@H]4C(=O)NC[C@@H]4CCCC[C@H](NS(=O)(=O)c4ccccc4)C(=O)N3C[C@@H]21 [Example 154]	< 100	< 100
CC(C)C[C@@H]1NC(=O)[C@@H](NC(=O)C(C)(C)C)CC/C=C\[C@H]2CNC(=O)[C@H]2C[C@@H](C#N)NC1=O [Example 59]	100 to 1000	1000 to 20000
CC(C)(C)COC(=O)N[C@H]1CCCC[C@H]2CNC(=O)[C@H]2C[C@@H](C#N)NC(=O)[C@@H]2[C@@H]3[C@H](CN2C1=O)C3(C)C [Example 106]	< 100	100 to 1000
CC(C)(C)C(=O)N[C@H]1CCCC[C@H]2CNC(=O)[C@H]2C[C@@H](C#N)NC(=O)[C@@H]2CCCN2C1=O [Example 74]	1000 to 20000	1000 to 20000
CC(C)C[C@@H]1NC(=O)[C@@H](Cc2ccccc2)CCCC[C@H]2CNC(=O)[C@@H]2C[C@@H](C=O)NC1=O [Example 37]	< 100	100 to 1000
CC(C)(C)OC(=O)N[C@H]1CCCC[C@H]2CNC(=O)[C@H]2C[C@@H](C#N)NC(=O)[C@@H]2[C@H]3CCC[C@H]3CN2C1=O [Example 79]	< 100	100 to 1000

Compound	IC50 [1] [nM]	IC50 [2] [nM]
CC1(C)[C@@H]2[C@H]3C(=O)N[C@H](C#N)C[C@@H]4C(=O)NC[C@@H]4CCCC[C@H](NC(=O)OC4CCCC4)C(=O)N3C[C@@H]21 [Example 75]	< 100	< 100
CC(C)C[C@@H]1NC(=O)[C@@H](NC(=O)OC(C)(C)C)CCC[C@H]2CNC(=O)[C@@H]2C[C@@H](C=O)NC1=O [Example 19]	< 100	100 to 1000
CC(C)(C)CC(=O)N[C@H]1CCCC[C@H]2CCNC(=O)[C@H]2C[C@@H](C#N)NC(=O)[C@@H]2[C@H]3CCC[C@H]3CN2C1=O [Example 95]	< 100	100 to 1000
CC(C)C[C@@H]1NC(=O)CCCC[C@H]2CNC(=O)[C@@H]2C[C@@H](C=O)NC1=O [Example 4]	< 100	100 to 1000
CC1(C)C[C@H]2C(=O)N[C@H](C#N)C[C@@H]3C(=O)NC[C@@H]3CCCC[C@H](NC(=O)OC(C)(C)C)C(=O)N2C1 [Example 130]	100 to 1000	100 to 1000
CC(C)C[C@@H]1NC(=O)[C@@H](NC(=O)C(C)(C)C)CCCC[C@H]2CNC(=O)[C@H]2C[C@@H](C#N)NC1=O [Example 44]	< 100	100 to 1000
CC(C)(C)NC(=O)[C@H]1CCCC[C@H]2CNC(=O)[C@H]2C[C@@H](C#N)NC(=O)[C@@H]2[C@@H]3[C@H](CN2C1=O)C3(C)C [Example 167]	100 to 1000	1000 to 20000
CC1(C)[C@@H]2[C@H]3C(=O)N[C@H](C#N)C[C@@H]4C(=O)NC[C@@H]4CCCC[C@H](NC(=O)C4CCCCC4)C(=O)N3C[C@@H]21 [Example 77]	< 100	< 100
CC(C)C[C@@H]1NC(=O)[C@@H](NC(=O)OC(C)(C)C)CCCC[C@H]2CNC(=O)[C@H]2C[C@@H](C#N)NC1=O [Example 56]	100 to 1000	100 to 1000
CC(C)C[C@@H]1NC(=O)CCCCCC[C@@H]2CNC(=O)[C@@H]2C[C@@H](C=O)NC1=O [Example 46]	1000 to 20000	1000 to 20000
CC(C)C[C@@H]1NC(=O)CCCCC[C@H]2CNC(=O)[C@H]2C[C@@H](C=O)NC1=O [Example 30]	100 to 1000	1000 to 20000
CC(C)(C)C(=O)N[C@H]1CC/C=C/[C@H]2CNC(=O)[C@H]2C[C@@H](C#N)NC(=O)[C@@H]2[C@@H]3[C@H](CN2C1=O)C3(C)C [Example 61]	< 100	< 100
CC(C)C[C@@H]1NC(=O)[C@@H](N(C)C(=O)OC(C)(C)C)CCC[C@H]2CNC(=O)[C@@H]2C[C@@H](C#N)NC1=O [Example 22]	> 20000	> 20000
Cc1nc(C(=O)N[C@H]2CCCC[C@H]3CNC(=O)[C@H]3C[C@@H](C#N)NC(=O)[C@@H]3[C@@H]4[C@H](CN3C2=O)C4(C)C)co1 [Example 115]	< 100	< 100
CC(C)C[C@@H]1NC(=O)CCCCC[C@H]2CNC(=O)[C@@H]2C[C@@H](C=O)NC1=O [Example 32]	100 to 1000	100 to 1000
N#C[C@@H]1C[C@@H]2C(=O)NC[C@@H]2CCCC[C@H](NS(=O)(=O)c2ccc(F)cc2F)C(=O)N2C[C@@H]3CCC[C@@H]3[C@H]2C(=O)N1 [Example 155]	< 100	100 to 1000
CC(C)C[C@@H]1NC(=O)CCCCC[C@@H]2CCNC(=O)[C@H]2C[C@@H](C=O)NC1=O [Example 33]	> 20000	> 20000
CC1(C)[C@@H]2[C@H]3C(=O)N[C@H](C#N)C[C@@H]4C(=O)NC[C@@H]4CCCC[C@H](NC(=O)C(C)(C)C(F)(F)F)C(=O)N3C[C@@H]21 [Example 141]	< 100	< 100

From patent US20260325540A1 (priority 2023, published 2026)
